In patent US11414663B2, “Micro-RNA profiling, compositions, and methods of treating diseases” (GOWEY RESEARCH GROUP, PLLC, priority 2010, dated 2022):

Test system: miRNA
Assay: Pre and post microRNA profiles of patients after spine injections of rate limiters
Format: in vivo, human
Conditions: for Impact on genome using spine injections: spine injections in patients, pre vs post miRNA profiles

[Se] [Selenium]
Impact on genome using spine injections: Increases ail miRNA

N[C@@H](CCC(=O)N[C@@H](CS)C(=O)NCC(=O)O)C(=O)O [Glutathione]
Impact on genome using spine injections: Decrease all miRNA

[Mg+2] [Magnesium]
Impact on genome using spine injections: Increases all miRNA

N[C@@H](CS)C(=O)O [Cysteine]
Impact on genome using spine injections: Increases ail miRNA

[Zn] [Zinc]
Impact on genome using spine injections: Decrease all miRNA except miR-486 | miR-486 level, pre-treatment vs post-treatment profile (spine injections, all other miRNA levels lowered): miR-486 had increased
